Experimental data from paper PMC3581553, “New Approaches of PARP-1 Inhibitors in Human Lung Cancer Cells and Cancer Stem-Like Cells by Some Selected Anthraquinone-Derived Small Molecules” (PLoS ONE, 2013).
Like-named read-outs stand apart in the source and are kept apart here. Values belong to the compound of their own block, whether it stands above or below them.

Experiments:
A549 cells = assay: MTT cytotoxicity assay, A549 cells; format: cell-based; details: Homo sapiens, 48 h of drug exposure
Experimental: (§1) Non-small cell lung cancer cells A549 and Oct-4- and Nanog-overexpressed A549 clone (clone #3; A3), presented the properties of cancer stem-like cells, as well as epithelial-mesenchymal transdifferentiation, according to our previous study. They were grown in the same conditions as RPMI 1640 media supplemented with 10% fetal bovine serum (FBS), 100 units/mL penicillin, […] streptomycin, 1 mM sodium pyruvate, 2 mM l-glutamine and 1% non-essential amino acid (NEAA) in a humidified atmosphere with 5% CO2 at 37°C. Normal fibroblast cells HEL299 from American Type Culture Collection (ATCC) were grown in MEM media supplemented with 10% FBS, 100 units/mL penicillin, […] streptomycin, 1 mM sodium pyruvate, 2 mM l-glutamine and 1% NEAA, in a humidified atmosphere with 5% CO2 at 37°C.
(§2) The tetrazolium reagent (MTT; 3-(4,5-dimethylthiazol-2-yl)-2,5-diphenyl-tetrazolium bromide, USB) was designed to yield a colored formazan upon metabolic reduction by viable cells, [61]. Approximately 5×10^4 cells were plated onto each well of a 24-well plate and incubated in 5% CO2 at 37°C for 24 hours. To assess the in vitro cytotoxicity, each compound was dissolved in DMSO and prepared immediately before the experiments and then was diluted into the complete medium before being added to cell cultures. Test compounds were then added to the culture medium in various designated concentrations. After 48 hours, an amount of 100 µl of MTT was added to each well, and the samples were incubated at 37°C for 2 h. 100 µl DMSO was added to each well. The absorbency at 560 nm and reference absorbency at 670 nm were measured using an ELISA reader.

[1] = test system: Oct-4- and Nanog-overexpressed A549 clone (A3); assay: MTT cytotoxicity assay, A3 cells; format: cell-based; details: Homo sapiens, 48 h of drug exposure
Experimental: as §1, §2

HEL299 cells = assay: MTT cytotoxicity assay, HEL299 normal fibroblasts; format: cell-based; details: Homo sapiens, HEL 299, 48 h of drug exposure
Experimental: as §1, §2

PARP-1 = molecular target: T1, PARP-1 (Homo sapiens, UniProt P09874); assay: PARP inhibitory assay (histone-coated plate, colorimetric); format: biochemical
T1 construct: purchased
T1 sequence (P09874 whole entry): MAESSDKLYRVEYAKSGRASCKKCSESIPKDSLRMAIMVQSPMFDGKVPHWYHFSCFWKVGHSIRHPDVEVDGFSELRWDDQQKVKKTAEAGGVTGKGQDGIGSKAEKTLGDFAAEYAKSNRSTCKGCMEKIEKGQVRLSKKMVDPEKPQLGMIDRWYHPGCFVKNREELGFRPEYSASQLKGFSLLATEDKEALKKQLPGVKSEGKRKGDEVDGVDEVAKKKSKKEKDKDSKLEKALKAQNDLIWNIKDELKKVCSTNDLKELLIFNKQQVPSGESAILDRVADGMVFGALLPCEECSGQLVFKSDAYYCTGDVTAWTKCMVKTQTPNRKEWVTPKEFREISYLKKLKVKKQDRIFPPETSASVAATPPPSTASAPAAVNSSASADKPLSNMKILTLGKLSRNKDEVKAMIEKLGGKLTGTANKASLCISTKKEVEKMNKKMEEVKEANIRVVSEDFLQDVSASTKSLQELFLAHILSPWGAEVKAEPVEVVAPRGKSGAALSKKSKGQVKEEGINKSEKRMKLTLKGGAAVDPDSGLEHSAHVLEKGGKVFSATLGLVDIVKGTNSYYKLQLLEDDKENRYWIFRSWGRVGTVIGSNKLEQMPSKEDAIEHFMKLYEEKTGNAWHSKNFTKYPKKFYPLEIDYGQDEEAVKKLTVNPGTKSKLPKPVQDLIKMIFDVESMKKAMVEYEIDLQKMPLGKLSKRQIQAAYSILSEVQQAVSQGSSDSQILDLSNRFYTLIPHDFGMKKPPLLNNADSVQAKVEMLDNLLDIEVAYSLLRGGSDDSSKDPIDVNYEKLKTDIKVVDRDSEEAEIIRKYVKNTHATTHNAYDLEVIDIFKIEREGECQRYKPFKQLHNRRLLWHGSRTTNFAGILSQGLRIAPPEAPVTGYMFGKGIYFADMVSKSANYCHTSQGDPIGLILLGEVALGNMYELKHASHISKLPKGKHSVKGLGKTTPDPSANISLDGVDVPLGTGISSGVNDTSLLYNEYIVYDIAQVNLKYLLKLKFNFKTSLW
Experimental: We used histone-coated 96-well plate treated with seven putative PARP-1 inhibitors or well-known PARP-1 inhibitors (3-AB), and then added PARP enzyme to each well. PARP enzyme catalyzes the NAD-dependent addition of poly (ADP-ribose) to histone, and diluted Strp-HRP could bind to PARylation histone. TACS-Sapphire™ yielded blue under the HRP existence. In order to systematically evaluate the potential anticancer activity, the compounds were tested for their cytotoxicity in vitro against 60 human cancer lines in the NCI anticancer drug screen as well as for dose response curves and telomerase activity. Cell growth was analyzed by the MTT assay, with differences between dose-response curves analyzed non-parametrically. Telomerase activity was detected by a modified version of the PCR-based assay and TRAP assay. […] However, PARP inhibitory effects had no difference at 1 and 10 µM. As described above, NSC746364, NSC746366 and NSC749232 show dose-dependency only at low concentrations. […] NSC747854 had dose-dependent PARP inhibitory manners at three different concentrations, and reached the maximum inhibitory effect of 86% at 10 µM (Table 4). […] In this investigation, we continued to focus our attention on the role of NSC747854 and to understand the basis of pharmacophore selectivity. Of particular note is the significant difference with these selected compounds, compared with that of 3-AB and PJ-34. […] An electron-rich aromatic ring system, including a carboxamide group, should have at least a hydrogen atom on the amide nitrogen. The amidinium moiety is known to contribute to the stabilization of DNA recognition element through electrostatic and hydrogen bonding interactions. Therefore, hydrogen bonds are frequently used as recognition elements due to their directionality and also due to being attractive factors to the biological activity (Figure 1). Many classes of drugs have substantial curvature, high DNA affinity, binding to the minor-groove or major-groove, interference with DNA-associated enzymes (e.g. telomerase), and Poly (ADP-ribose) polymerase, PARP. […] This approach greatly expands the utility of the substituents and related pharmacophore for the construction of drugs in general. Therefore, it is desirable to design PARP inhibitors in accordance with various anticancer parameters. It was first reported that anthraquinone analogues are potent human PARP inhibitors.
Strip wells were removed from the wrapper and 50 µl of 1X PARP Buffer was added to each well to rehydrate the histones. They were incubated at room temperature for 30 minutes. The 1X PARP buffer was removed from the wells by tapping the strip wells on paper towels. The serial dilutions of inhibitor of interest were added to appropriate wells. The diluted PARP enzyme (0.5 unit/well) was then added to the wells containing inhibitor. They were incubated for 10 minutes at room temperature. The PARP Enzyme-High Specific Activity (PARP-HAS) standard was serially diluted in cold micro-tubes with 1X PARP buffer such that the total activity was 1 unit/25 µl, 0.5 units/25 µl, 0.25 units/25 µl, 0.1 units/25 µl, 0.05 units/25 µl, 0.025 units/25 µl, and 0.01 units/25 µl, respectively. The 25 µl of each standard was added to triplicate wells. The 25 µl of 1X PARP cocktail were distributed into each well by using a multichannel pipettor. The final reaction volume is 50 µl. They were incubated along with the strip wells at room temperature for 60 minutes. The strip wells were washed 2 times with 1X PBS +0.1% Triton X-100 (200 µl/well) followed by 2 washes with 1X PBS. All the liquid was removed following each wash by tapping strip wells onto paper towels. The 50 µl diluted Strep-HRP were added per well. They were incubated at room temperature for 60 minutes. The strip wells were washed 2 times with 1X PBS +0.1% Triton X-100 (200 µl/well) followed by 2 washes with 1X PBS. All the liquid was removed following each wash by tapping strip wells onto paper towels. […]

EKVX = assay: NCI-60 drug screen (SRB), NSCLC line EKVX; format: cell-based, human
Experimental: (§3) As a primary screening, seven selected compounds were submitted to the National Cancer Institute (NCI) cell lines screen for evaluation of their anticancer activity. From the data analysis, it follows that approximately 95% of the actives from the 60 cell lines screen can be identified. The detailed methods used for the 60 cell lines panel have been described elsewhere [54]–[59]. Briefly, cellular protein levels were determined after 48 hours of drug exposure by SRB colorimetry. Through the use of a time zero cell control, the cell growth can be determined for each cell line thus allowing calculations of GI50, TGI, and LC50. Comparison to plates not exposed to drug permits determination of concentration and times of exposure conferring GI50, TGI, and LC50. […] By these criteria, seven compounds reported from our compounds bank were all active and passed on for evaluation in the full panel of 60 human tumor cell lines. The panel is organized into nine subpanels representing diverse histology: leukemia, melanoma, and cancers of the lung, colon, kidney, ovary, breast, prostate, and central nervous system.

NCI-H460 = assay: NCI-60 drug screen (SRB), NSCLC line NCI-H460; format: cell-based, human
Experimental: as §3

NCI-H226 = assay: NCI-60 drug screen (SRB), NSCLC line NCI-H226; format: cell-based, human
Experimental: as §3

A549/ATCC = assay: NCI-60 drug screen (SRB), NSCLC line A549/ATCC; format: cell-based, human
Experimental: as §3

HOP-62 = assay: NCI-60 drug screen (SRB), NSCLC line HOP-62; format: cell-based, human
Experimental: as §3

NCI-H322M = assay: NCI-60 drug screen (SRB), NSCLC line NCI-H322M; format: cell-based, human
Experimental: as §3

NCI-H522 = assay: NCI-60 drug screen (SRB), NSCLC line NCI-H522; format: cell-based, human
Experimental: as §3

NCI-H23 = assay: NCI-60 drug screen (SRB), NSCLC line NCI-H23; format: cell-based, human
Experimental: as §3

[2] = Homo sapiens, 48 hours drug exposure, SRB
[3] = Homo sapiens, 48 hours drug exposure, SRB, read-out: GI50
[4] = Homo sapiens, NCI in vitro 60-cell lines Drug Screen, read-out: -Log GI50 (converted)
[5] = Homo sapiens, 48 hours drug exposure, SRB, read-out: LC50 (the source's name)

SMILES: CN(C)CC(=O)Nc1ccc2[nH]c(=O)c3ccccc3c2c1 [PJ-34, reference compound]
- IC50 (A549 cells): 31.7 µM
- IC50 [1]: 9.44 µM
- IC50 (HEL299 cells): 14.7 µM

- inhibition at 0.1 µM (PARP-1): 4%
- inhibition at 1 µM (PARP-1): 10%
- inhibition at 10 µM (PARP-1): 18%
SMILES: NC(=O)c1cccc(N)c1 [3-AB, 3-Aminobenzamide, reference compound]
- IC50 (A549 cells): 13.1 µM
- IC50 [1]: 10.8 µM
- IC50 (HEL299 cells): 5.98 µM

SMILES: O=C1c2ccccc2C(=O)c2c1ccc1nc(SCCN3CCCC3)[nH]c21 [NSC747515]
- TGI (EKVX; 48 hours drug exposure, SRB): 26.5 µM
- LC50 (EKVX; [2]): 62.4 µM
- GI50 (EKVX; [3]): 11.2 µM
- GI50 (EKVX; [4]): 11.2 µM
- IC50 (A549 cells): 11.8 µM
- inhibition at 0.1 µM (PARP-1): 20%
- inhibition at 1 µM (PARP-1): 22%
- inhibition at 10 µM (PARP-1): 24%
- TGI (NCI-H460; 48 hours drug exposure, SRB): 4.77 µM
- LC50 (concentration killing 50% of cells) (NCI-H460; [2]): 29.3 µM
- GI50 (NCI-H460; [3]): 1.68 µM
- GI50 (NCI-H460; [4]): 1.7 µM
- IC50 [1]: 7.05 µM
- TGI (NCI-H226; 48 hours drug exposure, SRB): 36.6 µM
- GI50 (NCI-H226; [3]): 19.3 µM
- CC50 (NCI-H226; [5]): 69.7 µM
- GI50 (NCI-H226; [4]): 19.5 µM
- IC50 (HEL299 cells): 25.9 µM
- TGI (A549/ATCC; 48 hours drug exposure, SRB): 15.0 µM
- LC50 (concentration killing 50% of cells) (A549/ATCC; [2]): 41.8 µM
- GI50 (A549/ATCC; [3]): 3.8 µM
- GI50 (A549/ATCC; [4]): 3.8 µM
- TGI (HOP-62; 48 hours drug exposure, SRB): 33.2 µM
- GI50 (HOP-62; [3]): 18 µM
- CC50 (HOP-62; [5]): 61.2 µM
- GI50 (HOP-62; [4]): 18.2 µM
- TGI (NCI-H322M; 48 hours drug exposure, SRB): 21.4 µM
- LC50 (NCI-H322M; [2]): 47.3 µM
- GI50 (NCI-H322M; [3]): 8.21 µM
- GI50 (NCI-H322M; [4]): 8.13 µM
- TGI (NCI-H522; 48 hours drug exposure, SRB): 32.5 µM
- GI50 (NCI-H522; [3]): 15.9 µM
- CC50 (NCI-H522; [5]): 66.2 µM
- GI50 (NCI-H522; [4]): 15.8 µM
- TGI (NCI-H23; 48 hours drug exposure, SRB): 25.7 µM
- GI50 (NCI-H23; [3]): 11.6 µM
- CC50 (NCI-H23; [5]): 56.9 µM
- GI50 (NCI-H23; [4]): 11.5 µM
